Read-outs that look alike come from different tables or passages of the source. Numbered stars: 1 amine (or outer) side, 2 acyl side, 3 side chain; on linkers, the order of the positions; unused ones are H or OH. Bridge positions count the residues as written; N and C are the ends. Square brackets hold non-standard residues; d marks the D form. Peptide text beside a SMILES is read from it. I, II: the chains in the order shown. γGlu = O=C(O)[C@H](CCC(=O)[*:2])N[*:1]
What was measured:
[1] = tested on: equine kidney γ-glutamyltranspeptidase; test: Stability towards γ-glutamyltranspeptidase (HPLC-MS); conditions: 1 mM peptide, 0.3 mg/mL equine kidney GGT, 0.1 M Tris-HCl pH 7.4, 0.1% EDTA, 6 mM Gly-Gly acceptor, 37°C, 1 h; HPLC-MS read-out
Procedure: 6 mM Gly-Gly was added as an acceptor for γ-Glu moiety [20]. GSH was incubated with GGT under the same conditions as the control. The samples were heat-inactivated, centrifuged at 10000 g and +4°C for 5 min, and kept on ice until analyzed. Supernatants were analyzed on a Prominence HPLC (Shimadzu, Japan) and Q-Trap 3200 (Applied Biosystems, USA) mass spectrometry tandem. Luna C18 100 × 2 mm, 3 μm column from Phenomenex was used for sample separation. Solvent A was a mixture of 99.9% water and 0.1% HCOOH, and solvent B was a mixture of 99.9% acetonitrile and 0.1% HCOOH (mass spectrometry grade, Riedel-de Haėn, Germany). Samples were eluated at a flow rate of 0.1 mL/min, gradient started with 5 min at isocratic flow of solvent A, concentration of solvent B increased up to 30% in 25 min, followed by wash with 100% solvent B in 20 min. Enhanced MS scans were performed in negative mode with rate 1000 amu/s between mass range 50–1700 Da. Ionspray voltage was set to −4500 V, declustering potential to −30 V and entrance potential to −10 V.

[2] = tested on: K562 cells; set-up: method as in PMID 17577738, PMID 15489015; conditions: cited from earlier work
[3] = tested on: primary culture of cerebellar granule cells; set-up: method as in PMID 17577738, PMID 15489015; conditions: cited from earlier work
[4] = pKa of thiol groups, spectrophotometric titration; assay type: physicochemical; conditions: 50 μM peptide in phosphate buffered saline, titrated with 1 M NaOH, absorbance at 240 nm
Procedure: The ratio of thiol and thiolate concentrations were measured spectrophotometrically at 240 nm on a PerkinElmer Lambda 25 spectrometer similarly as previously for GSH and α-GSH [21]. 1 mL of 50 μM peptide solution in phosphate buffered saline (Calbiochem, USA) was titrated with 5 μL volumes of 1 M NaOH and pH and absorbance changes were determined after each addition. The results were corrected to consider the dilution of the assay mixture during titration.

[5] = previous work; cited from earlier work
Source text: UPF1 and UPF17 have also shown different effects in free radical scavenging experiments. According to the classification of kinetic behavior by Sánches-Moreno et al., UPF17 is classified as fast and UPF1 as intermediate DPPH radical scavenger. […] This raised a question about pKa values for the thiol groups of UPF peptides. Previously, the change of γ-peptide bond to α-peptide bond has also been investigated f ...

Compound | degradation by GGT [1] | pKa of thiol group [4] | concentration up to which nontoxic for K562 cells [2] | concentration up to which no toxic effect on cerebellar granule cells [3] | pKa of thiol group [5]
N[C@@H](CCC(=O)N[C@@H](CS)C(=O)NCC(=O)O)C(=O)O [GSH, γ-L-Glu-L-Cys-Gly, reference compound] | – | 9.0 ± 0.3 | – | – | 9.0 ± 0.1
N[C@@H](CCC(=O)O)C(=O)N[C@@H](CS)C(=O)NCC(=O)O [α-GSH] (H-Glu-Cys-Gly-OH) | – | 9.1 ± 0.1 | – | – | 9.1 ± 0.1

Further lines, with some results ahead:

degradation by GGT [1] | pKa of thiol group [4] | Compound | concentration up to which nontoxic for K562 cells [2] | concentration up to which no toxic effect on cerebellar granule cells [3] | pKa of thiol group [5]
not degraded | 9.3 ± 0.1 | COc1ccc(C[C@H](N)C(=O)N[C@@H](CCC(=O)N[C@@H](CS)C(=O)NCC(=O)O)C(=O)O)cc1 [UPF1, Tyr(Me)-γ-Glu-Cys-Gly] (H-Y(Me)[γGlu]CG-OH) | ≤ 200 µM | up to 100 μM | –
not detected | – | COc1ccc(C[C@H](N)C(=O)N[C@@H](CCC(=O)N[C@@H](CSSC[C@H](NC(=O)CC[C@H](NC(=O)[C@@H](N)Cc2ccc(OC)cc2)C(=O)O)C(=O)NCC(=O)O)C(=O)NCC(=O)O)C(=O)O)cc1 [dimerised UPF1] (I: H-Y(Me)[γGlu]CG-OH / II: H-Y(Me)[γGlu]CG-OH; disulfide I:3-II:3) | – | – | –
– | 9.4 ± 0.2 | COc1ccc(C[C@H](N)C(=O)N[C@@H](CCC(=O)O)C(=O)N[C@@H](CS)C(=O)NCC(=O)O)cc1 [UPF17, Tyr(Me)-Glu-Cys-Gly] (H-Y(Me)ECG-OH) | ≤ 200 µM | – | –
